Patent US9447148B2, “Melanocortin-1 receptor-specific cyclic peptides” (Palatin Technologies, Inc., priority 2009, dated 2016)
Bridge positions count the residues as written; N and C are the ends. Square brackets hold non-standard residues; d marks the D form. Peptide text beside a SMILES is read from it. dPhe(4-Me) = Cc1ccc(C[C@@H](N)C(=O)O)cc1; Nle = CCCC[C@H](N)C(=O)O; Orn = NCCC[C@H](N)C(=O)O; Dab = NCC[C@H](N)C(=O)O; Dap = NC[C@H](N)C(=O)O

Legend:
hMCR-1 = hMCR-1 (Homo sapiens (Human), UniProt Q01726); assay: Assay for agonist activity: intracellular cAMP accumulation in HBL human melanoma cells; type: cell-based; settings: for MC-1 Emax (average; cAMP HBL): HBL cells, maximum efficacy compared to reference agonist NDP-α-MSH; for EC50: HBL cells expressing hMCR-1, averaged, read-out: MC-1 EC50 (average; cAMP HBL)
Method: Confluent HBL cells that express hMCR-1 or HEK-293 cells that express recombinant hMCR-4 were detached from culture plates by incubation in enzyme-free cell dissociation buffer. Dispersed cells were suspended in Earle's Balanced Salt Solution containing 10 mM HEPES (pH 7.5), 1 mM MgCl2, 1 mM glutamine, 0.5% albumin and 0.3 mM 3-isobutyl-1-methyl-xanthine (IBMX), a phosphodiesterase inhibitor. The cells were plated in 96-well plates at a density of 0.4×10^5 cells per well for HBL cells and 0.5×10^5 cells per well for HEK-293 cells and pre-incubated for 10 minutes. Cells were exposed for 15 minutes at 37° C. to peptides of the present invention dissolved in DMSO (final DMSO concentration of 1%) at a concentration range of 0.05-5000 nM in a total assay volume of 200 μL. […] Data analysis was performed by nonlinear regression analysis with Graph-Pad Prism® software.
(§1) Peptides of the following structures were synthesized and averaged MCR-1 and MCR-4 Ki values were determined as indicated. […] All results are expressed in nM except for Emax values, which are percentage values. Peptides with the captioned primary sequence were synthesized and purified as described in Section 5 above, with the resulting peptide having the structure depicted.

hMCR-4 = hMCR-4 (Homo sapiens (Human), UniProt P32245); assay: Competitive inhibition binding assay using [I125]-NDP-α-MSH, hMCR-4; settings: membrane homogenates of HEK-293 cells, human recombinant receptor, averaged, read-out: MC-4 Ki (average)
Method: (§2) A competitive inhibition binding assay was performed using membrane homogenates prepared from HEK-293 cells that express recombinant hMCR-1a or hMCR-4 (in each instance where the h prefix refers to human), or alternatively membrane homogenates from B16-F10 mouse melanoma cells containing endogenous murine MCR-1. In the examples that follow, all MCR-1 and MCR-4 values are for human recombinant receptors, unless otherwise noted. Assays were performed in 96 well polypropylene round-bottom plates (VWR catalog number 12777-030). […] After incubation for 90 minutes at 37° C., the assay mixture was filtered onto GF/B Unifilter plates (Perkin-Elmer catalog number 6005177) and washed with 3 mL of ice-cold buffer per well. Filters were air dried and 35 μL of scintillation cocktail added to each well. Plates were counted in a Microbeta counter for bound radioactivity. […] Each assay was conducted in duplicate and the actual mean values are described, with results less than 0% reported as 0%. Ki values for peptides of the present invention were determined using Graph-Pad Prism® curve-fitting software.
as §1

hMCR-1a = hMCR-1a (Homo sapiens (Human), UniProt Q01726); assay: Competitive inhibition binding assay using [I125]-NDP-α-MSH, hMCR-1a; settings: membrane homogenates of HEK-293 cells, human recombinant receptor, averaged, read-out: MC-1 Ki (average)
Method: as §2, §1

hMCR-1a, sequence (Q01726 whole entry): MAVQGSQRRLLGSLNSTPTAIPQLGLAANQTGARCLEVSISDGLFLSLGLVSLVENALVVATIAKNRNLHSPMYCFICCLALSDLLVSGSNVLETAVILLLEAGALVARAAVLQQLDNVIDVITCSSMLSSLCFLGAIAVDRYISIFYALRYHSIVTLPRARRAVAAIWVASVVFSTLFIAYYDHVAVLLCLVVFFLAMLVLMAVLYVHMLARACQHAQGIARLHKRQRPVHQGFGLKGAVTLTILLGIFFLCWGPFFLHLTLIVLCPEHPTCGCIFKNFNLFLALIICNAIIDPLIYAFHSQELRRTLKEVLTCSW
hMCR-1, sequence (Q01726 whole entry): as above
hMCR-4, sequence (P32245 whole entry): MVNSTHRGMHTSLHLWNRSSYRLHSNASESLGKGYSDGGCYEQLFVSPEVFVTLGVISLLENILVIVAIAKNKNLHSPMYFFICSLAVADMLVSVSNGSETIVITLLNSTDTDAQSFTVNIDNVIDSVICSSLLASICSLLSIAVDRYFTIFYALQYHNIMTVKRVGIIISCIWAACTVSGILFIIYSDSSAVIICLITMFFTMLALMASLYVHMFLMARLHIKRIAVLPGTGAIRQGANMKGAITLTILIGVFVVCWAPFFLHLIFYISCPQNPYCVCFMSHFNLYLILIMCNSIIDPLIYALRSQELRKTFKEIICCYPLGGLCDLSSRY

MC-1 Emax (average; cAMP HBL) (hMCR-1) | Ki (hMCR-4) | EC50 (hMCR-1) | Ki (hMCR-1a) | Structure (SMILES)
– | 10000 nM | – | 3 nM | CCCC[C@H](NC(C)=O)C(=O)N[C@H]1CCC(=O)NCC[C@@H](C(N)=O)NC(=O)[C@H](CCCNC(=N)N)NC(=O)[C@@H](Cc2ccc(C)cc2)NC(=O)[C@H](CCCN)NC1=O [Example 9.63, Ac-Nle-cyclo(Glu-Orn-D-Phe(4-Me)-Arg-Dab)-NH2] (Ac-[Nle]E[Orn][dPhe(4-Me)]R[Dab]-NH2; lactam 2-6)
91% ^ | – | – | – | CCCC[C@H](NC(C)=O)C(=O)N[C@H]1CCC(=O)NCC[C@@H](C(=O)N[C@@H](CCCCN)C(N)=O)NC(=O)[C@H](CCCNC(=N)N)NC(=O)[C@@H](Cc2ccccc2)NC(=O)[C@H](Cc2c[nH]cn2)NC1=O [Example 9.52, Ac-Nle-cyclo(Glu-His-D-Phe-Arg-Dab)-Lys-NH2] (Ac-[Nle]EH[dF]R[Dab]K-NH2; lactam 2-6)
– | 10000 nM | 0.12 nM | 2 nM | CCCC[C@H](NC(C)=O)C(=O)N[C@H]1CCC(=O)NCC[C@@H](C(N)=O)NC(=O)[C@H](CCCNC(=N)N)NC(=O)[C@@H](Cc2ccc(OC)cc2)NC(=O)[C@H](CCCN)NC1=O [Example 9.64, Ac-Nle-cyclo(Glu-Orn-D-Phe(4-OMe)-Arg-Dab)-NH2] (Ac-[Nle]E[Orn][dY](Me)R[Dab]-NH2; lactam 2-6)
– | 185 nM | – | 3 nM | CCCC[C@H](NC(C)=O)C(=O)N[C@H]1CCC(=O)NCC[C@@H](C(=O)N[C@@H](Cc2c[nH]c3ccccc23)C(N)=O)NC(=O)[C@H](CCCNC(=N)N)NC(=O)[C@@H](Cc2ccccc2)NC(=O)[C@H]2CCCN2C1=O [Example 9.66, Ac-Nle-cyclo(Glu-Pro-D-Phe-Arg-Dab)-Trp-NH2]
108% ^ | – | – | – | CCCC[C@H](NC(C)=O)C(=O)N[C@H]1CCC(=O)NCC[C@@H](C(=O)N[C@@H](Cc2c[nH]c3ccccc23)C(N)=O)NC(=O)[C@H](CCCNC(=N)N)NC(=O)[C@@H](Cc2ccccc2)NC(=O)[C@H](CCCCN)NC1=O [Example 9.53, Ac-Nle-cyclo(Glu-Lys-D-Phe-Arg-Dab)-Trp-NH2]
108% ^ | – | – | – | CCCC[C@H](NC(C)=O)C(=O)N[C@H]1CCC(=O)NCC[C@@H](C(=O)N[C@@H](Cc2c[nH]c3ccccc23)C(N)=O)NC(=O)[C@H](CCCNC(=N)N)NC(=O)[C@@H](Cc2ccccc2)NC(=O)[C@H](CCN)NC1=O [Example 9.54, Ac-Nle-cyclo(Glu-Dab-D-Phe-Arg-Dab)-Trp-NH2]
– | 3620 nM | – | 4 nM | CCCC[C@H](NC(C)=O)C(=O)N[C@H]1CCC(=O)NCC[C@@H](C(N)=O)NC(=O)[C@H](CCCNC(=N)N)NC(=O)[C@@H](Cc2ccccc2)NC(=O)[C@H](CCCN)NC1=O [Example 9.56, Ac-Nle-cyclo(Glu-Orn-D-Phe-Arg-Dab)-NH2] (Ac-[Nle]E[Orn][dF]R[Dab]-NH2; lactam 2-6)
109% ^ | – | – | – | CCCC[C@H](NC(C)=O)C(=O)N[C@H]1CCC(=O)NCC[C@@H](C(=O)N[C@@H](Cc2c[nH]c3ccccc23)C(N)=O)NC(=O)[C@H](CCCNC(=N)N)NC(=O)[C@@H](Cc2ccccc2)NC(=O)[C@H](CCCN)NC1=O [Example 9.55, Ac-Nle-cyclo(Glu-Orn-D-Phe-Arg-Dab)-Trp-NH2]

The next lines start with the compound.

Structure (SMILES) | MC-1 Emax (average; cAMP HBL) (hMCR-1) | Ki (hMCR-4) | EC50 (hMCR-1) | Ki (hMCR-1a)
CCCC[C@H](NC(C)=O)C(=O)N[C@H]1CCC(=O)NCC[C@@H](C(=O)N[C@@H](Cc2c[nH]c3ccccc23)C(N)=O)NC(=O)[C@H](CCCNC(=N)N)NC(=O)[C@@H](Cc2ccccc2)NC(=O)[C@H](Cc2c[nH]cn2)NC1=O [Example 9.31, Ac-Nle-cyclo(Glu-His-D-Phe-Arg-Dab)-Trp-OH] | 79% ^ | 10000 nM | – | –
CCCC[C@H](NC(C)=O)C(=O)N[C@H]1CCC(=O)NCC[C@@H](C(N)=O)NC(=O)[C@H](C)NC(=O)[C@@H](Cc2ccccc2)NC(=O)[C@H](Cc2c[nH]cn2)NC1=O [Example 9.33, Ac-Nle-cyclo(Glu-His-D-Phe-Ala-Dab)-NH2] (Ac-[Nle]EH[dF]A[Dab]-NH2; lactam 2-6) | – | 10000 nM | 44 nM | 645 nM
CCCC[C@H](NC(C)=O)C(=O)N[C@H]1CC(=O)NC[C@@H](C(=O)N[C@@H](Cc2c[nH]c3ccccc23)C(N)=O)NC(=O)[C@H](CCCNC(=N)N)NC(=O)[C@@H](Cc2ccccc2)NC(=O)[C@H](Cc2c[nH]cn2)NC1=O [Example 9.4, Ac-Nle-cyclo(Asp-His-D-Phe-Arg-Dap)-Trp-NH2] (Ac-[Nle]DH[dF]R[Dap]W-NH2; lactam 2-6) | – | 1320 nM | 0.195 nM | 2 nM
CCCC[C@H](NC(C)=O)C(=O)N[C@H]1CCC(=O)NCC[C@@H](C(=O)N[C@@H](Cc2c[nH]c3ccccc23)C(N)=O)NC(=O)[C@H](C)NC(=O)[C@@H](Cc2ccccc2)NC(=O)[C@H](Cc2c[nH]cn2)NC1=O [Example 9.48, Ac-Nle-cyclo(Glu-His-D-Phe-Ala-Dab)-Trp-NH2] (Ac-[Nle]EH[dF]A[Dab]W-NH2; lactam 2-6) | 72% ^ | – | – | –
N=C(N)NCCC[C@@H]1NC(=O)[C@@H](Cc2ccccc2)NC(=O)[C@H](Cc2c[nH]cn2)NC(=O)[C@@H](NC(=O)CC2CCCC2)CCC(=O)NCC[C@@H](C(=O)N[C@@H](Cc2c[nH]c3ccccc23)C(N)=O)NC1=O [Example 9.21, cyclopentyl acetyl-cyclo(Glu-His-D-Phe-Arg-Dab)-Trp-NH2] | – | – | 0.004 nM | 0.01 nM
CCCC[C@H](NC(C)=O)C(=O)N[C@H]1CCC(=O)NCC[C@@H](C(N)=O)NC(=O)[C@@H](Cc2ccccc2)NC(=O)[C@H](Cc2c[nH]cn2)NC1=O [Example 9.46, Ac-Nle-cyclo(Glu-His-D-Phe-Dab)-NH2] (Ac-[Nle]EH[dF][Dab]-NH2; lactam 2-5) | – | 10000 nM | – | 10000 nM
CCCC[C@H](NC(C)=O)C(=O)N[C@H]1CCC(=O)NCC[C@@H](C(N)=O)NC(=O)[C@H](C)NC(=O)[C@@H](Cc2ccccc2)NC(=O)[C@H](Cc2c[nH]cn2)NC1=O [Example 9.45, Ac-Nle-cyclo(Glu-His-D-Phe-Ala-Dab)-NH2] (Ac-[Nle]EH[dF]A[Dab]-NH2; lactam 2-6) | 73% | – | – | –
CCCC[C@H](NC(C)=O)C(=O)N[C@H]1CCC(=O)NCC[C@@H](C(N)=O)NC(=O)[C@H](CCCNC(=N)N)NC(=O)[C@@H](Cc2ccccc2)NC(=O)[C@H](Cc2c[nH]cn2)NC1=O [Example 9.44, Ac-Nle-cyclo(Glu-His-D-Phe-Arg-Dab)-NH2] (Ac-[Nle]EH[dF]R[Dab]-NH2; lactam 2-6) | 85% ^ | – | – | –
CCCC[C@H](NC(C)=O)C(=O)N[C@H]1CCC(=O)NCC[C@@H](C(=O)N[C@@H](Cc2c[nH]c3ccccc23)C(N)=O)NC(=O)CNC(=O)[C@@H](Cc2ccccc2)NC(=O)[C@H](Cc2c[nH]cn2)NC1=O [Example 9.47, Ac-Nle-cyclo(Glu-His-D-Phe-Gly-Dab)-Trp-NH2] (Ac-[Nle]EH[dF]G[Dab]W-NH2; lactam 2-6) | 59% | – | – | –
N=C(N)NCCC[C@@H]1NC(=O)[C@@H](Cc2ccccc2)NC(=O)[C@H](Cc2c[nH]cn2)NC(=O)[C@@H](NC(=O)C2CC2)CCC(=O)NCC[C@@H](C(=O)N[C@@H](Cc2c[nH]c3ccccc23)C(N)=O)NC1=O [Example 9.19, cyclo-propanoyl-cyclo(Glu-His-D-Phe-Arg-Dab)-Trp-NH2] | – | – | – | 3 nM
CCCC[C@H](NC(C)=O)C(=O)N[C@H]1CCC(=O)NCC[C@@H](C(=O)N[C@@H](Cc2c[nH]c3ccccc23)C(N)=O)NC(=O)[C@H](CCCNC(=N)N)NC(=O)[C@@H](Cc2ccccc2)NC(=O)[C@H](CCCNC(=N)N)NC1=O [Example 9.50, Ac-Nle-cyclo(Glu-Arg-D-Phe-Arg-Dab)-Trp-NH2] | 100% ^ | – | – | –
CCCC[C@H](NC(C)=O)C(=O)N[C@H]1CNC(=O)CCC(=O)NCC[C@@H](C(=O)N[C@@H](Cc2c[nH]c3ccccc23)C(N)=O)NC(=O)[C@H](CCCNC(=N)N)NC(=O)[C@@H](Cc2ccccc2)NC(=O)[C@H](Cc2c[nH]cn2)NC1=O [Example 9.43] | – | 860 nM | – | 0.065 nM
CCCC[C@H](NC(C)=O)C(=O)N[C@H]1CCC(=O)NCC[C@@H](C(=O)N[C@@H](Cc2c[nH]c3ccccc23)C(N)=O)NC(=O)[C@H](CCCNC(=N)N)NC(=O)[C@@H](Cc2ccccc2)NC(=O)[C@H](C)NC1=O [Example 9.49, Ac-Nle-cyclo(Glu-Ala-D-Phe-Arg-Dab)-Trp-NH2] | 86% ^ | – | – | –
